# Values joined by “and” are separate entries in the source; they are usually repeats but may differ in a detail not shown here. Equal entries are not always repeated. “Also recorded” adds a separate entry of the source.
# Columns and labels:
# [1] = test system: Immunoglobulin levels (IgG, IgA and IgM); assay: First observational study: serum immunoglobulin levels by nephelometry, clozapine-treated vs clozapine-naive patients; type: in vivo, human
# [2] = in vivo; cited from earlier work
# [3] = First observational study: infection questionnaire, antibiotic courses and hospital admission rates; type: in vivo, human
# [4] = Michel. L. et al., 2015; cited from earlier work
# [5] = test system: circulating total IgG, IgA and IgM; assay: Second observational study (interim analysis): circulating immunoglobulins and pneumococcal-specific IgG; type: in vivo, human
# [6] = test system: anti-type II collagen IgG1 and IgG2a; assay: Mouse CIA model: specific anti-collagen immunoglobulin by ELISA; type: in vivo, DBA/1 mice
# [7] = sub-group A: all diagnoses, all smoking, secondary causes not excluded, n=123
# [8] = sub-group A: all diagnoses, all smoking, secondary causes not excluded, n=123, listed as clozapine
# [9] = sub-group B: possible secondary causes excluded, n=94
# [10] = sub-group C: schizophrenia diagnoses only, secondary causes excluded, n=87
# [11] = sub-group D: smokers only, secondary causes excluded, n=57
compound,measurement,setting,value
"CN1CCN(C2=Nc3cc(Cl)ccc3Nc3ccccc32)CC1 [Clozapine, clozapine]","Concentrations / distribution of serum IgG, IgA and IgM vs clozapine-naive control group",[1]; FIG. 1A-D,significantly reduced; also recorded: leftward shift (reduction)
same,Effect of duration of clozapine therapy on serum IgG levels,"[1]; p 0.014, not observed in clozapine-naive patients",associated with lower serum IgG levels; also recorded: progressively reduced IgG levels
same,"Serum IgA <0.5 g/L, percentage of patients",[1]; [7],1.6%
same,"Serum IgA <0.6 g/L, percentage of patients",[1]; [7],2.4%
same,"Serum IgA <0.7 g/L, percentage of patients",[1]; [7],6.5%
same,"Serum IgA <0.8 g/L (below reference range 0.8-4.0 g/L), percentage of patients",[1]; [7],13.1% and 13.0%
same,"Serum IgG <3 g/L, percentage of patients",[1]; [7],0.8%
same,"Serum IgG <4 g/L, percentage of patients",[1]; [7],1.6%
same,"Serum IgG <5 g/L, percentage of patients",[1]; [7],3.3%
same,"Serum IgG <6 g/L (below reference range 6-16 g/L), percentage of patients",[1]; [7],9.8%
same,"Serum IgM <0.2 g/L, percentage of patients",[1]; [7],8.1%
same,"Serum IgM <0.3 g/L, percentage of patients",[1]; [7],16.3%
same,"Serum IgM <0.4 g/L, percentage of patients",[1]; [7],29.3%
same,"Serum IgM <0.5 g/L (below reference range 0.5-1.9 g/L), percentage of patients",[1]; [7],38.2%
same,"Serum IgA <0.8 g/L (below reference range 0.8-4.0 g/L), percentage of patients",[1]; [8],13.0%
same,"Serum IgG <6 g/L (below reference range 6-16 g/L), percentage of patients",[1]; [8],9.8%
same,"Serum IgM <0.5 g/L (below reference range 0.5-1.9 g/L), percentage of patients",[1]; [8],38.2%
same,"Serum IgA <0.5 g/L, percentage of patients",[1]; [9],2.1%
same,"Serum IgA <0.6 g/L, percentage of patients",[1]; [9],2.1%
same,"Serum IgA <0.7 g/L, percentage of patients",[1]; [9],6.4%
same,"Serum IgA <0.8 g/L (below reference range 0.8-4.0 g/L), percentage of patients",[1]; [9],13.8%
same,"Serum IgG <3 g/L, percentage of patients",[1]; [9],1.1%
same,"Serum IgG <4 g/L, percentage of patients",[1]; [9],1.1%
same,"Serum IgG <5 g/L, percentage of patients",[1]; [9],2.1%
same,"Serum IgG <6 g/L (below reference range 6-16 g/L), percentage of patients",[1]; [9],8.4%
same,"Serum IgM <0.2 g/L, percentage of patients",[1]; [9],5.3%
same,"Serum IgM <0.3 g/L, percentage of patients",[1]; [9],12.8%
same,"Serum IgM <0.4 g/L, percentage of patients",[1]; [9],26.6%
same,"Serum IgM <0.5 g/L (below reference range 0.5-1.9 g/L), percentage of patients",[1]; [9],34.0%
same,"Serum IgA <0.5 g/L, percentage of patients",[1]; [10],2.3%
same,"Serum IgA <0.6 g/L, percentage of patients",[1]; [10],3.5%
same,"Serum IgA <0.7 g/L, percentage of patients",[1]; [10],6.9%
same,"Serum IgA <0.8 g/L (below reference range 0.8-4.0 g/L), percentage of patients",[1]; [10],14.9%
same,"Serum IgG <3 g/L, percentage of patients",[1]; [10],1.2%
same,"Serum IgG <4 g/L, percentage of patients",[1]; [10],1.2%
same,"Serum IgG <5 g/L, percentage of patients",[1]; [10],2.3%
same,"Serum IgG <6 g/L (below reference range 6-16 g/L), percentage of patients",[1]; [10],9.2%
same,"Serum IgM <0.2 g/L, percentage of patients",[1]; [10],5.8%
same,"Serum IgM <0.3 g/L, percentage of patients",[1]; [10],12.6%
same,"Serum IgM <0.4 g/L, percentage of patients",[1]; [10],27.6%
same,"Serum IgM <0.5 g/L (below reference range 0.5-1.9 g/L), percentage of patients",[1]; [10],35.6%
same,"Serum IgA <0.5 g/L, percentage of patients",[1]; [11],3.5%
same,"Serum IgA <0.6 g/L, percentage of patients",[1]; [11],3.5%
same,"Serum IgA <0.7 g/L, percentage of patients",[1]; [11],3.5%
same,"Serum IgA <0.8 g/L (below reference range 0.8-4.0 g/L), percentage of patients",[1]; [11],10.5%
same,"Serum IgG <3 g/L, percentage of patients",[1]; [11],1.8%
same,"Serum IgG <4 g/L, percentage of patients",[1]; [11],1.8%
same,"Serum IgG <5 g/L, percentage of patients",[1]; [11],1.8%
same,"Serum IgG <6 g/L (below reference range 6-16 g/L), percentage of patients",[1]; [11],8.8%
same,"Serum IgM <0.2 g/L, percentage of patients",[1]; [11],1.78%
same,"Serum IgM <0.3 g/L, percentage of patients",[1]; [11],12.3%
same,"Serum IgM <0.4 g/L, percentage of patients",[1]; [11],26.3%
same,"Serum IgM <0.5 g/L (below reference range 0.5-1.9 g/L), percentage of patients",[1]; [11],33.3%
same,LD50,[2],200 mg/kg
same,Admitted to hospital with infection,[3]; clozapine group (vs 0.06 in controls),0.12 per patient year
same,"Admission frequency in 12-month period, all cause: patients admitted",[3]; clozapine-treated patients,14 patients
same,"Admission frequency in 12-month period, infection-related: admissions",[3]; clozapine-treated patients,15
same,"Admission frequency in 12-month period, infection-related: patients admitted",[3]; clozapine-treated patients,10 patients
same,"Antibiotic courses per year: 1-5 courses, percentage of patients",[3]; clozapine-treated patients,33.0%
same,"Antibiotic courses per year: >5 courses, percentage of patients",[3]; clozapine-treated patients,5.3%
same,"Antibiotic courses per year: nil courses, percentage of patients",[3]; clozapine-treated patients,61.7%
same,"Antibiotic courses per year: >5 courses, percentage of patients","[3]; clozapine-treated patients, listed as clozapine",5.3%
same,CNS penetration,[4],high levels of CNS penetration
same,"Levels of circulating total IgG, IgA and IgM vs clozapine naive",[5]; FIG. 6A-C,Significantly reduced
same,IgG antibodies against pneumococcus vs clozapine naive,[5]; FIG. 7,trend to lower
same,Reduction of anti-type II collagen IgG1,[6]; 10 mg/kg from day 15,reaching statistical significance
same,Serum anti-type II collagen IgG2a,"[6]; 5 or 10 mg/kg from day 1 or day 15, single time point",no significant impact
same,Levels of anti-type II collagen IgG1,[6]; across all doses tested,nominal reductions

# — patent publication US20210236512A1 (ZARODEX THERAPEUTICS LIMITED, priority 2018, published 2021)
